Reference: patent publication US9809623B2, “α4β7 peptide monomer and dimer antagonists” (Protagonist Therapeutics, Inc., priority 2014, dated 2017)
Read-outs that look alike come from different tables or passages of the source. Numbered stars: 1 amine (or outer) side, 2 acyl side, 3 side chain; on linkers, the order of the positions; unused ones are H or OH. Bridge positions count the residues as written; N and C are the ends. Square brackets hold non-standard residues; d marks the D form. Peptide text beside a SMILES is read from it. I, II: the chains in the order shown. ξ: configuration not given here. Phe(4-tBu) = CC(C)(C)c1ccc(C[C@H](N)C(=O)O)cc1; Diglycolyl = O=C(COCC(=O)[*:2])[*:1]; NMeR = CN[C@@H](CCCNC(=N)N)C(=O)O; β3hE = N[C@@H](CCC(=O)O)CC(=O)O; Thr(3ξ) = CC(O)[C@H](N)C(=O)O; Pen = CC(C)(S)[C@H](N)C(=O)O

Assay: Tissue exposure after oral administration, 8 days
Assay type: in vivo
Details: cynomolgus monkey; for level at time molar at 4 h: 4 hours after the last dose
Description: To determine tissue exposure following oral administration of Peptide X, Cynomolgus monkeys were dosed with Peptide X PO QD for 8 days at 12.5 mg/kg, 25 mg/kg or 75 mg/kg. The vehicle was 50 mM phosphate buffer, pH 7. Oral bioavailability in cyno (% F) was about 0.3%. Samples were collected 4 hours after the last dose.

With `CC(=O)N[C@@H]1C(=O)N(C)[C@@H](CCCNC(=N)N)C(=O)N[C@@H](CO)C(=O)N[C@@H](CC(=O)O)C(=O)N[C@@H](C(C)O)C(=O)N[C@@H](CC(C)C)C(=O)N[C@H](C(=O)N[C@@H](Cc2ccc(C(C)(C)C)cc2)C(=O)N[C@@H](CCC(=O)O)CC(=O)N[C@H](CCCCNC(=O)COCC(=O)NCCCC[C@@H](NC(=O)C[C@H](CCC(=O)O)NC(=O)[C@H](Cc2ccc(C(C)(C)C)cc2)NC(=O)[C@H]2NC(=O)[C@H](CC(C)C)NC(=O)[C@H](C(C)O)NC(=O)[C@H](CC(=O)O)NC(=O)[C@H](CO)NC(=O)[C@H](CCCNC(=N)N)N(C)C(=O)[C@@H](NC(C)=O)C(C)(C)SSC2(C)C)C(N)=O)C(N)=O)C(C)(C)SSC1(C)C` (stereo partly drawn) [Peptide X, [Ac-Pen-(N-Me-Arg)-Ser-Asp-Thr-Leu-Pen-(Phe(4-tBu))-(β-homoGlu)-(D-Lys)]2-DIG] (I: Ac-[Pen][NMeR]SD[Thr(3ξ)]L[Pen][Phe(4-tBu)][β3hE][dK]-NH2 / II: Ac-[Pen][NMeR]SD[Thr(3ξ)]L[Pen][Phe(4-tBu)][β3hE][dK]-NH2; disulfide I:1-I:7, II:1-II:7; linker I:10-II:10 via Diglycolyl) the level at time molar at 4 h (colon, 12.5 mg/kg PO QD 8 days, read-out: Peptide X exposure, Colon) was 4160 nM, the level at time molar at 4 h (colon, 25 mg/kg PO QD 8 days, read-out: Peptide X exposure, Colon) was 1550 nM and the level at time molar at 4 h (colon, 75 mg/kg PO QD 8 days, read-out: Peptide X exposure, Colon) was 15500 nM. For the same compound, the bioavailability (in vivo, oral, read-out: Oral bioavailability in cyno (% F)) was roughly 0.3%, the level at time molar at 4 h (mesenteric lymph node, 12.5 mg/kg PO QD 8 days, read-out: Peptide X exposure, Mesenteric Lymph Node) was 1500 nM and the level at time molar at 4 h (mesenteric lymph node, 25 mg/kg PO QD 8 days, read-out: Peptide X exposure, Mesenteric Lymph Node) was 138 nM. For the same compound, the level at time molar at 4 h (mesenteric lymph node, 75 mg/kg PO QD 8 days, read-out: Peptide X exposure, Mesenteric Lymph Node) was 1980 nM, the level at time molar at 4 h (plasma, 12.5 mg/kg PO QD 8 days, read-out: Peptide X exposure, Plasma) was 2 nM and the level at time molar at 4 h (plasma, 25 mg/kg PO QD 8 days, read-out: Peptide X exposure, Plasma) was 5 nM. It also gave a level at time molar at 4 h (plasma, 75 mg/kg PO QD 8 days, read-out: Peptide X exposure, Plasma) of 21 nM, a level at time molar at 4 h (small intestine, 12.5 mg/kg PO QD 8 days, read-out: Peptide X exposure, Small Intestine) of 661 nM and a level at time molar at 4 h (small intestine, 25 mg/kg PO QD 8 days, read-out: Peptide X exposure, Small Intestine) of 293 nM. The level at time molar at 4 h (small intestine, 75 mg/kg PO QD 8 days, read-out: Peptide X exposure, Small Intestine) was 7840 nM.
